Measurements as given in publication PMC4537469 (Protein & Cell, 2015).

How the values were obtained:
RXRα [1] = target: T1, RXRα (Homo sapiens, UniProt P19793, R316E); experiment: mammalian one-hybrid reporter in MCF-7 cells ([…]); assay type: cell-based
T1 construct: gene RXRA; Gal4-DBD-RXRα-LBD
T1 sequence (P19793 223-462 R316E limits assumed): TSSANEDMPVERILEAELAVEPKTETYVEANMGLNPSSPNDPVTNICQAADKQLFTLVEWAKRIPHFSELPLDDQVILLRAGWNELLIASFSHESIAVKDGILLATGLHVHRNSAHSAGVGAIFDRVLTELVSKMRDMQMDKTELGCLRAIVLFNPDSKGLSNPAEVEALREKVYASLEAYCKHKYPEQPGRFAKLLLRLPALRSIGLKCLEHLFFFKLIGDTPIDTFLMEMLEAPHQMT

RXRα [2] = target: T1, RXRα; experiment: mammalian one-hybrid reporter in MCF-7 cells, antagonism of CD3254 (N-6 at […]); assay type: cell-based
RXRα [3] = target: T2, RXRα (Homo sapiens, UniProt P19793, W305A); experiment: SPR (BIAcore T200); assay type: binding
T2 construct: gene RXRA; RXRα-LBD
T2 sequence (P19793 223-462 W305A): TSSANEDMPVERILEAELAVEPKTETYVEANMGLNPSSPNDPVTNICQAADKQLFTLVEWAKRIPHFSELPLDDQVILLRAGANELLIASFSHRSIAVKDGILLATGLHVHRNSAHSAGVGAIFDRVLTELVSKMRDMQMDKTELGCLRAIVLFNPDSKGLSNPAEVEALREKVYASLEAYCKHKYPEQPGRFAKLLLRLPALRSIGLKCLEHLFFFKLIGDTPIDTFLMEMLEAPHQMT

RXRα [4] = target: T3, RXRα (Homo sapiens, UniProt P19793); experiment: SPR (BIAcore T200); also [3H]9-cis-RA competition (IC50 […]), fluorescence binding, TR-FRET coactivator assay (IC50 […])
T3 construct: gene RXRA; His-tagged human RXRα-LBD (223–462)
T3 sequence (P19793 223-462): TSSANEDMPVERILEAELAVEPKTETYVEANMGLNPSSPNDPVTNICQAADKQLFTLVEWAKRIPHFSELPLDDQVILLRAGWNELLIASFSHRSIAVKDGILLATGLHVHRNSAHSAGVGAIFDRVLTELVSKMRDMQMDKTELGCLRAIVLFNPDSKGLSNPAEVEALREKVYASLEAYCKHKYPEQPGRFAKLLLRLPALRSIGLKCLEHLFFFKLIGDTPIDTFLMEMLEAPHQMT

[5] = target: the molecule itself; experiment: native gel or EMSA; RXRα-LBD protein (2 mg/mL) incubated with DMSO, 10 μmol/L 9-cis-RA, 25 or 50 μmol/L N-6 for 3 h; 8% nondenaturing PAGE, Coomassie staining

Cc1cc2c(cc1-c1cc(/C=C/C(=O)O)ccc1O)C(C)(C)CCC2(C)C [CD3254]
mammalian one-hybrid reporter in MCF-7 cells (10^-7 mol/L) (RXRα [1]): CD3254 was able to stimulate the transactivation of the mutant

C/C(=N/O)c1sc(-n2nc(-c3ccccc3)cc2-c2ccccc2)nc1C [N-6, (NZ)-N-[1-[2-(3,5-diphenylpyrazol-1-yl)-4-methyl-1,3-thiazol-5-yl]ethylidene]droxylamine]
mammalian one-hybrid reporter in MCF-7 cells, antagonism of CD3254 (N-6 at 10 μm) (RXRα [2]): CD3254-induced transactivation of RXRα-LBD/R316E was potently inhibited by N-6 | Kd (RXRα [3]): 1000 µM | Kd (RXRα [4]): 15.7 µM

B1: His-tagged human RXRα-LBD (223–462) (domain or fragment, UniProt P19793 223-462, looked up)
chain: TSSANEDMPVERILEAELAVEPKTETYVEANMGLNPSSPNDPVTNICQAADKQLFTLVEWAKRIPHFSELPLDDQVILLRAGWNELLIASFSHRSIAVKDGILLATGLHVHRNSAHSAGVGAIFDRVLTELVSKMRDMQMDKTELGCLRAIVLFNPDSKGLSNPAEVEALREKVYASLEAYCKHKYPEQPGRFAKLLLRLPALRSIGLKCLEHLFFFKLIGDTPIDTFLMEMLEAPHQMT
stoichiometry N [5]: 2
